Experimental data from ChEMBL document CHEMBL4393659, “Insights into the chemistry and therapeutic potential of furanones: A versatile pharmacophore” (Eur J Med Chem, 2019).
Converted amounts (≈) assume the structure as drawn.

Columns and labels:
MAC13 = assay: Antiproliferative activity against mouse MAC13 cells assessed as reduction in cell viability incubated for 3 days by MTT assay; format: functional, cell-based; settings: MAC13, 72 h
MAC16 [1] = assay: Antitumor activity in mouse MAC16 cells xenografted in NMRI mouse assessed as reduction in tumor weight administered after 2 days of transplantation and measured after 7 day; format: functional
MAC16 [2] = assay: Antiproliferative activity against mouse MAC16 cells assessed as reduction in cell viability incubated for 3 days by MTT assay; format: functional, cell-based; settings: MAC16, 72 h
A549 [3] = assay: Antitumor activity against human A549 cells assessed as inhibition of cell viability at 100 uM by MTT assay; format: functional
A549 [4] = assay: Antitumor activity against human A549 cells assessed as inhibition of cell viability at 50 uM by MTT assay; format: functional
Rattus norvegicus = assay: Antiinflammatory activity in Wistar rat assessed as inhibition of carrageenan-induced edema measured upto 4 hrs; format: functional
[5] = Ulcerogenicity in Wistar rat assessed as gastric lesions; format: toxicity; settings: in vivo
Pyricularia oryzae = assay: Antifungal activity against Pyricularia oryzae CGMCC 3.3283 assessed as reduction in fungal cell growth incubated for 24 hrs by broth dilution method; format: functional; settings: CGMCC 3.3283, 24 h
Fusarium graminearum = assay: Antifungal activity against Gibberella zeae CGMCC 3.2873 assessed as reduction in fungal cell growth incubated for 24 hrs by broth dilution method; format: functional; settings: CGMCC 3.2873, 24 h
Fusarium oxysporum [6] = assay: Antifungal activity against Fusarium oxysporum CGMCC 3.2830 assessed as reduction in fungal cell growth incubated for 24 hrs by broth dilution method; format: functional; settings: CGMCC 3.2830, 24 h
Scedosporium boydii = assay: Antifungal activity against Pseudallescheria boydii BMU04772 assessed as reduction in fungal cell growth incubated for 24 hrs by broth dilution method; format: functional; settings: BMU04772, 24 h
Candida tropicalis = assay: Antifungal activity against Candida tropicalis 156 assessed as reduction in fungal cell viability measured after 24 and 72 hrs by photometry; format: functional
Candida albicans [7] = assay: Antifungal activity against Candida albicans ATCC 44859 assessed as reduction in fungal cell viability measured after 24 and 48 hrs by photometry; format: functional
Lichtheimia corymbifera [8] = assay: Antifungal activity against Absidia corymbifera assessed as reduction in fungal cell viability by broth dilution method; format: functional
Aspergillus fumigatus [9] = assay: Antifungal activity against Aspergillus fumigatus assessed as reduction in fungal cell viability by broth dilution method; format: functional
Aspergillus fumigatus [10] = assay: Antifungal activity against Aspergillus fumigatus 231 assessed as reduction in fungal cell viability measured after 24 and 72 hrs by photometry; format: functional
[11] = tested on: Trichophyton mentagrophytes; assay: Antifungal activity against Trichophyton mentagrophytes 445 assessed as reduction in fungal cell viability measured after 72 and 120 hrs by photometry; format: functional
Pichia kudriavzevii = assay: Antifungal activity against Candida krusei E28 assessed as reduction in fungal cell viability measured after 24 and 48 hrs by photometry; format: functional
Nakaseomyces glabratus = assay: Antifungal activity against Candida glabrata 20/I assessed as reduction in fungal cell viability measured after 24 and 72 hrs by photometry; format: functional
Lichtheimia corymbifera [12] = assay: Antifungal activity against Absidia corymbifera 272 assessed as reduction in fungal cell viability measured after 24 and 72 hrs by photometry; format: functional
Trichosporon beigelii = assay: Antifungal activity against Trichosporon beigelii 1188 assessed as reduction in fungal cell viability measured after 24 and 72 hrs by photometry; format: functional
[13] = target: Cyclin-dependent kinase 5/CDK5 activator 1 (Homo sapiens, UniProt Q00535); assay: Inhibition of CDK5/p25 (unknown origin); format: protein-complex assay
Cyclin-dependent kinase 5/CDK5 activator 1, sequence (Q00535 whole entry): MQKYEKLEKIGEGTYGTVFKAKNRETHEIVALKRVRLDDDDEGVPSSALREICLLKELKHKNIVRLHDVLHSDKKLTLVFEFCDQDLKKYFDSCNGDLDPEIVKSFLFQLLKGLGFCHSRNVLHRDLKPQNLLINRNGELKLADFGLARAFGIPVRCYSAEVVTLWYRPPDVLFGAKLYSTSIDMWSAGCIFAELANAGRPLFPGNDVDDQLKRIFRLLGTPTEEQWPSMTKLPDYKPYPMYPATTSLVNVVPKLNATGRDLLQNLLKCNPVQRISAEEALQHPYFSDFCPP
Cyclin-dependent kinase 5/CDK5 activator 1, sequence (Q15078 whole entry, further chain): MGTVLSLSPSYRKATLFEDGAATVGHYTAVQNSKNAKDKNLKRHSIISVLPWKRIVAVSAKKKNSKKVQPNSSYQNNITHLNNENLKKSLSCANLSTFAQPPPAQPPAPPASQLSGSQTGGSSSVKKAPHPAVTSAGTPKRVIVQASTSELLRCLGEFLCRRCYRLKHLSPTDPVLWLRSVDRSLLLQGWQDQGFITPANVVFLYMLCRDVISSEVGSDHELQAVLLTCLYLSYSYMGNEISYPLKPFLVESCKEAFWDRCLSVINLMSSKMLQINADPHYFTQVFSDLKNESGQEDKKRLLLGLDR

[14] = target: Glycogen synthase kinase-3 (Homo sapiens, UniProt P49840+P49841); assay: Inhibition of GSK3alpha/beta (unknown origin); format: protein assay
[15] = target: Cyclin-dependent kinase 1/cyclin B1 (Homo sapiens, UniProt P06493); assay: Inhibition of CDK1/cyclinB (unknown origin); format: protein-complex assay
Cyclin-dependent kinase 1/cyclin B1, sequence (P06493 whole entry): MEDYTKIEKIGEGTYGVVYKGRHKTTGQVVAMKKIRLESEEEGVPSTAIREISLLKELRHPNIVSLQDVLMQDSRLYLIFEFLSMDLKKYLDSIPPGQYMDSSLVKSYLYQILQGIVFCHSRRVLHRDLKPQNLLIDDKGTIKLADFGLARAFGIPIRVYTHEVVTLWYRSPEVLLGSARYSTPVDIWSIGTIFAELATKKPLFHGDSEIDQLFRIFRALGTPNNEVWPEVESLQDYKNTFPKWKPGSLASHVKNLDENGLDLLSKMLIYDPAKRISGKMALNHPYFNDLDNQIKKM
Cyclin-dependent kinase 1/cyclin B1, sequence (P14635 whole entry, further chain): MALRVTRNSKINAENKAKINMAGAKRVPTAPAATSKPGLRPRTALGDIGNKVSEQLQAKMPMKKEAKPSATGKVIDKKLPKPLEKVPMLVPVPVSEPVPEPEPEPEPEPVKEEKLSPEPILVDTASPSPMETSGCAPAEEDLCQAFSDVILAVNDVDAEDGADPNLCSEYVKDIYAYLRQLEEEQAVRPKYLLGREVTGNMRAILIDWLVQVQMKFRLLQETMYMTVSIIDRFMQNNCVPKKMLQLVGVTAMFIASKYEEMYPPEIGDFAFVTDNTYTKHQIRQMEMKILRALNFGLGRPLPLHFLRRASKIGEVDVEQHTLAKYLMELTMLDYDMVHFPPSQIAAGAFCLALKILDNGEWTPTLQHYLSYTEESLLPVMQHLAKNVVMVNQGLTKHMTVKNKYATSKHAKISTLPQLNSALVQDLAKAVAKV

[16] = Antioxidant activity assessed as DPPH radical scavenging activity measured for each 5 mins for 3 hrs; format: functional
Liver = assay: Antioxidant activity in rat liver microsomes assessed as reduction in ferrous salt/ascorbic acid-induced lipid peroxidation of membrane lipids by measuring malondialdehyde level after 90 mins by spectrophotometry; format: functional, Microsome; settings: 1.5 h
[17] = Antioxidant activity assessed as superoxide anion scavenging activity at pH 7.4 phosphate buffer incubated for 5 mins by NBT assay; format: functional
MT4 = assay: Antiproliferative activity against human MT4 cells assessed as reduction in cell viability; format: functional, cell-based
L1210 = assay: Antiproliferative activity against mouse L1210 cells assessed as reduction in cell viability incubated for 48 hrs by coulter counter method; format: functional, cell-based; settings: L1210, 48 h
CCRF-CEM = assay: Antiproliferative activity against human CEM cells assessed as reduction in cell viability incubated for 48 hrs by coulter counter method; format: functional, cell-based
MOLT-4F = assay: Antiproliferative activity against human MOLT4F cells assessed as reduction in cell viability incubated for 72 hrs by coulter counter method; format: functional, cell-based
H5N1 subtype = assay: Antiviral activity against H5N1 virus infected in MDCK cells assessed as virus-induced cytopathogenicity infected for 2 hrs followed by virus washout and incubated for 3 days; format: functional, organism-based; settings: Influenza A virus
[18] = Cytotoxicity against dog MDCK cells assessed as reduction in cell viability incubated for 24 hrs by MTT assay; format: cell-based, Canis lupus familiaris; settings: read-out: LD50
Berkeleyomyces basicola = assay: Antifungal activity against Thielaviopsis basicola assessed as reduction in fungal spore germination measured between 4 to 24 hrs by inverted microscopy; format: functional; settings: read-out: ED50 (the source's name)
Fusarium solani = assay: Antifungal activity against Fusarium solani assessed as reduction in fungal spore germination measured between 4 to 24 hrs by inverted microscopy; format: functional; settings: read-out: ED50 (the source's name)
Globisporangium ultimum = assay: Antifungal activity against Pythium ultimum assessed as reduction in fungal spore germination measured between 4 to 24 hrs by inverted microscopy; format: functional; settings: read-out: ED50 (the source's name)
Fusarium oxysporum [19] = assay: Antifungal activity against Fusarium oxysporum assessed as reduction in fungal spore germination measured between 4 to 24 hrs by inverted microscopy; format: functional; settings: read-out: ED50 (the source's name)
Rhizoctonia solani = assay: Antifungal activity against Rhizoctonia solani assessed as reduction in fungal germ tube growth measured between 4 to 24 hrs by inverted microscopy; format: functional; settings: read-out: ED50 (the source's name)
Candida albicans [20] = assay: Antifungal activity against Candida albicans assessed as inhibition of fungal cell growth incubated for 72 hrs by disk diffusion method relative to control; format: functional
Mus musculus = assay: Antiinflammatory activity in carrageenan-induced C57Bl/6 mouse model of inflammation assessed as inhibition of PGE2 accumulation in air pouch at 0.1 to 10 mg/kg , po pretreated with carrageenan for 20 hrs and followed by compound administration and measured after 4 hrs; format: functional; settings: C57B1/6, po
[21] = target: Prostaglandin G/H synthase 2 (Oryctolagus cuniculus, UniProt O02768); assay: Inhibition of COX2 in rabbit whole blood assessed as reduction of LPS-induced PGE2 accumulation at 10 to 10000 nM preincubated with LPS followed by compound addition and incubated for 6 or 24 hrs by EIA method; format: tissue-based
Prostaglandin G/H synthase 2 (Oryctolagus cuniculus, UniProt O02768), sequence (O02768 whole entry): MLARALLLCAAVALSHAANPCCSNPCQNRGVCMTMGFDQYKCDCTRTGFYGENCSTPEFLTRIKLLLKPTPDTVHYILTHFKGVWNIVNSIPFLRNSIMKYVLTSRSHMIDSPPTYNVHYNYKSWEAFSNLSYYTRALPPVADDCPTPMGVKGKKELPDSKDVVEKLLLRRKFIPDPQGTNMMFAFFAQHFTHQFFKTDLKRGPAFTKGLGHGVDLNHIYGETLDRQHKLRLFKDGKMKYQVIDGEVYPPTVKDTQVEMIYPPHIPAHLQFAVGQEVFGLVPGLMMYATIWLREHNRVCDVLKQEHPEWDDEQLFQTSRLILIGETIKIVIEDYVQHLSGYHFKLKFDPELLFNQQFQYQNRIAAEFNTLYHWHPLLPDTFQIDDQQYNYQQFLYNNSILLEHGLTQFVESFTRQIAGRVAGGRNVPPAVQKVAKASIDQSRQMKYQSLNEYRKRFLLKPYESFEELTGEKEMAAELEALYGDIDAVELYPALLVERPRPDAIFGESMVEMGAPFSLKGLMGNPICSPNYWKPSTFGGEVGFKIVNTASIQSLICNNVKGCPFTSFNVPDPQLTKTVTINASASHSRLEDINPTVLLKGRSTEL

[22] = target: Prostaglandin G/H synthase 2 (Cavia porcellus, UniProt P70682); assay: Inhibition of COX2 in guinea pig blood assessed as reduction of LPS-induced PGE2 accumulation at 10 to 10000 nM preincubated with LPS followed by compound addition and incubated for 6 or 24 hrs by EIA method; format: tissue-based
Prostaglandin G/H synthase 2 (Cavia porcellus, UniProt P70682), sequence (P70682 whole entry): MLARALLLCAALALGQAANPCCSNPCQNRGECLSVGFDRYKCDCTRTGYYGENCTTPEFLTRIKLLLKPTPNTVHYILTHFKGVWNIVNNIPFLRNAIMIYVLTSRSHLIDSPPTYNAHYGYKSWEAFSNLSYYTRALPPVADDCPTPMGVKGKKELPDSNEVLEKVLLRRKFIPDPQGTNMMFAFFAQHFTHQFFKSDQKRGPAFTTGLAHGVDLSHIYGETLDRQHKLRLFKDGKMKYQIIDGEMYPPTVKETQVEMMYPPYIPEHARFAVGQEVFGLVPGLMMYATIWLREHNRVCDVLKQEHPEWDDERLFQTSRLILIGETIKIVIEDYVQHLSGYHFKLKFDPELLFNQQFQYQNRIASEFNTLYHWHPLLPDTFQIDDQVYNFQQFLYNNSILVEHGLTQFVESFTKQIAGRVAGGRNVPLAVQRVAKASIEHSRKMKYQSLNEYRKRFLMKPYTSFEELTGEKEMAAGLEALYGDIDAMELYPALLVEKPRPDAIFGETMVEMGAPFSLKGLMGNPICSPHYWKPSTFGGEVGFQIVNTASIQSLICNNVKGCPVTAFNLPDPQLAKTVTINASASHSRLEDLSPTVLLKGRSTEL

In the case of `O=C1OC(c2ccccc2)C(Cl)=C1Cl` (configuration not stated), the IC50 (MAC13) is reported as 50 µM, the “inhibition (INH)” value (MAC16 [1]) is reported as 24% and the IC50 (MAC16 [2]) is reported as 50 µM.

In the case of `CC[C@H](C)[C@H](NC1=C(Br)C(=O)O[C@@H]1OC)C(=O)OC`, the inhibition at 100 µM (A549 [3]) is reported as 97.2% and the inhibition at 50 µM (A549 [4]) is reported as 82.7%.

With `O=C1OC(c2ccc3ccccc3c2)=C/C1=C\c1cc2ccc([N+](=O)[O-])cc2nc1Cl` the “inhibition (INH)” value (Rattus norvegicus) was 56 - 63% and the UI [5] was 0.3.

`COC(=O)C[C@]1(O)OC(=O)C(C)=C1C` showed an MIC (Pyricularia oryzae) of 1.25 µg/mL (≈ 6.24 µM), an MIC (Fusarium graminearum) of 2 µg/mL (≈ 9.99 µM) and an MIC (Fusarium oxysporum [6]) of 2.5 µg/mL (≈ 12.5 µM). The MIC (Scedosporium boydii) was 0.15 µg/mL (≈ 0.749 µM).

`CC1C=C(c2ccc(Cl)c(Cl)c2)C(=O)O1` (configuration not stated) showed an MIC (Candida tropicalis) greater than 125 µM, an MIC (Candida albicans [7]) of 31.2 µM (≈ 7.6 µg/mL) and an MIC (Lichtheimia corymbifera [8]) of 7.6 µg/mL (≈ 31.3 µM). It also gave an MIC (Aspergillus fumigatus [9]) of 7.6 µg/mL (≈ 31.3 µM), an MIC (Aspergillus fumigatus [10]) of 7.87 µM (≈ 1.91 µg/mL) and an MIC [11] of 31.2 µM (≈ 7.6 µg/mL). The MIC (Pichia kudriavzevii) was greater than 125 µM, the MIC (Nakaseomyces glabratus) was greater than 125 µM and the MIC (Lichtheimia corymbifera [12]) was 7.81 µM (≈ 1.9 µg/mL). The MIC (Trichosporon beigelii) was 31.2 µM (≈ 7.6 µg/mL).

`COc1ccc(C2OC(=O)C(O)=C2I)cc1OC` (configuration not stated) gave an IC50 [13] of 10 µM, an IC50 [14] of 10 µM and an IC50 [15] of 10 µM.

For `O=C1OC(c2cccc(O)c2O)C(c2ccccc2)=C1O` (configuration not stated), the IC50 [16] was 10.3 µM, the IC50 (Liver) was 129 µM and the IC50 [17] was 187 µM.

Work on `C/C(=C\c1occ2cc3oc(=O)ccc3cc12)C1=CC(=O)C(C)(C)O1` yielded an IC50 (MT4) of 40 to 79 µM, an IC50 (L1210) of 40 to 79 µM and an IC50 (CCRF-CEM) of 40 to 79 µM. For the same molecule, the IC50 (MOLT-4F) was 40 to 79 µM.

Molecule `O=C1OC(c2ccccc2)=C/C1=N/Nc1ccc(Br)cc1` has an EC50 (H5N1 subtype) of less than 100 µg/mL and a CC50 at 24 h [18] of less than 100 µg/mL.

With `CCCC/C=C\C1=CC(C)OC1=O` (configuration not stated) the EC50 (Berkeleyomyces basicola) was 25 µg/mL (≈ 139 µM), the EC50 (Fusarium solani) was 54 µg/mL (≈ 300 µM) and the EC50 (Globisporangium ultimum) was 45 µg/mL (≈ 250 µM). The EC50 (Fusarium oxysporum [19]) was 56 µg/mL (≈ 311 µM) and the EC50 (Rhizoctonia solani) was 61 µg/mL (≈ 338 µM).

In the case of `O=C1OC(c2ccccc2)=C/C1=C/c1ccc([N+](=O)[O-])cc1`, the “growth inhibition (GI)” value (Candida albicans [20]) is reported as 66%.

Molecule `CS(=O)(=O)c1ccc(C2=C(c3ccc(F)c(F)c3)C(=O)OC2)cc1` has an ED50 (Mus musculus) of 0.5 mg/kg, an IC50 [21] of 2.8 µM and an IC50 [22] of 0.6 µM.
